Experimental data reported in US20020177120A1, “ASSAYS FOR APOTOSIS MODULATORS” (priority 1999, published 2002).

System: F9-1-13 cells
Assay: Cell-based FRET reporter assay in F9-1-13 (SgAT) cells
Parameters: species or system human
From the text: Transfection of pcDNA3VH-SgAT and pcDNA3VH-SnAT into U-138 cells (using methods described above) resulted initially in few colonies and FRET signal was lost in many clones during expansion, however, from among the various subclones the F9-1-13 (pcDNA3VH-SgAT transfected; ATCC No. PTA-84) and F10-24-2 (pcDNA3-SnAT transfected) subclones were eventually expanded and shown to express stable FRET signals. As desired, the FRET signal expressed in F9-1-13 decreased in response to both staurosporin and anti-Fas antibody treatment of cells, while the FRET signal expressed by the F10-24-2 control cells, (i.e., lacking a caspase substrate domain), was unaffected following staurosporin or anti-Fas antibody treatment. […] F9-1-13 therefore appeared suitable for microtiter assays, and perhaps use in HTS assays for screening to identify and select modulators of apoptosis.
Studies were initiated to adapt the experimental cell-based FRET assay of EXAMPLE 5 to a format suitable for use in high-throughput screening. First, the assay was scaled down from a 24-well to a 96-well plate format. Cells from three different F9 parental cultures were plated in a black-sided 96-well plates (Costar #3904) at a density of 32,000 cells/well (˜1×10^5 cells/cm^2); allowed to adhere overnight; and then the media was replaced with either 100 μl fresh media containing inducer (5 μM staurosporin in 0.25% DMSO vehicle) or 100 μl containing only vehicle (0.25% DMSO). After an overnight incubation, fluorescence measurements were made to evaluate FRET signal changes. […] The assay therefore appeared to be adaptable to a 96-well format but it was not initially clear how signal might be improved to increase the signal-to-background ratio.
A 96-well FRET assay was evaluated for inter-assay well variability and inter-plate variability. Possible signal drift during measurement of the FRET fluorescence signal was evaluated using one of two different robotics-compatible rapid fluorescence plate readers (SpeedReader or Cytofluor II). After plating at an initial density of about 60,000 cells/well, and overnight culture F9-1-13 cells were treated with 5 μM staurosporin, or vehicle. After an overnight incubation in staurosporin (i.e., 16-24 hrs.), the plates were either washed, or not washed, and then assayed repeatedly over the next 1.5 hours using either of the plate readers. […] However, using the same assay conditions but with anti-Fas antibody as an inducer, different results were recorded. […] The basis for the observed differences in measuring devices is not clear, but may relate to the design of the light source and/or the sensitivity of the detection circuitry in the two different respective fluorescence readers as well as possible different means for optically or digitally subtracting background incident radiation.
Assay Confirmation: The following experiment was performed to validate the ability of the 96-well FRET assay to detect inhibitors of apoptosis: namely, F9-1-13 cells (n=5 wells) were treated with 50-100 μM Z-VAD-fmk (a broad spectrum caspase inhibitor) or vehicle (n=55) in randomized wells of a 96-well plate. All of these wells, and six additional positive control wells (i.e., lacking the inhibitor), were treated with 5 μM staurosporine in 0.25% DMSO vehicle. Six negative control wells were treated with vehicle only (0.25% DMSO). After overnight incubation, FRET signal changes were evaluated as described above.
Three alternatives to staurosporine induction were evaluated: serum withdrawal; c2-ceramide treatment; and induction via engagement of the CD95/Fas receptor with anti-Fas antibody. […] To increase the proportion of adherent cells, poly-D-lysine and 0.1% gelatin were evaluated in anti-Fas antibody treated F9-1-13 cells. […] Anti-Fas antibody was therefore chosen as a preferred inducer of apoptosis for high-throughput screening. […]

CN[C@@H]1C[C@H]2O[C@@](C)([C@@H]1OC)n1c3ccccc3c3c4c(c5c6ccccc6n2c5c31)C(=O)NC4 [staurosporin]
FRET signal compared to the vehicle control (96-well, three F9 parental cultures, 32,000 cells/well, 5 μM overnight): significant (P<0.05) reduction in the FRET signal
time to measurable changes in FRET signal (60,000 cells/well, 5 μM, either fluorescence reader): ≤ 4 h
FRET signal response to inducer treatment (F9-1-13 subclone): decreased
FRET reporter cleavage by western blot after induction (staurosporin induction): significant (but not complete) cleavage of reporter
